Data reported in US11363815B2, “Trifluoroethyl thioether (sulfoxide) substituted benzene compound and use thereof” (SHENYANG UNIVERSITY OF CHEMICAL TECHNOLOGY, priority 2018, dated 2022).

Tested on: Tetranychus cinnabarinus eggs
Test: Determination of activity of Tetranychus cinnabarinus eggs (greenhouse spray test)
Format: in vivo
Settings: 120 h, concentration of the chemical solution 5 mg/L, spray treatment of eggs on marrow bean leaf, examined after 5 days, read-out: hatching inhibition rate for Tetranychus cinnabarinus eggs
Description: The acaricidal activity in a greenhouse was determined by using the compound of the present invention. The determination method is as follows: According to the solubility of the compound to be tested, the compound was dissolved with acetone or dimethyl sulfoxide, and prepared into 50 ml of solution to be tested in a concentration needed with 0.1% Tween 80 solution, in which the content of acetone or dimethyl sulfoxide comprises not more than […]. A potted marrow bean seedling with two true leaves was taken, one true leaf was removed, then 10 female adult mites of healthy Tetranychus cinnabarinus were inoculated to the leaf, the adult mites were removed after 24 hours, spray treatment was performed after examination of the number of eggs. Every treatment was performed for 3 times. After 5 days, when all the blank control eggs were incubated, the number of the eggs which were not incubated in each treatment was examined to calculate the incubation inhibition rate.

SMILES | inhibition at 5 µg/mL
Cc1cc(F)c(N2Cc3ccccc3C2=O)cc1[S+]([O-])CC(F)(F)F (centres unmarked) [compound 2] | ≥ 90%
Cc1cc(F)c(N2Cc3ccccc3C2=O)cc1SCC(F)(F)F [compound 1] | ≥ 90%
